We go through three compounds from patent publication US9453026B2, “ACC inhibitors and uses thereof” (Gilead Apollo, Inc., priority 2011, dated 2016).

Assay [1] has as its system ACC1. The following applies: ACC1 isolated from rat, mouse, monkey and human; cited from earlier work.
The subject of assay [2] is ACC2. The following applies: ACC2 isolated from rat, mouse, monkey and human; cited from earlier work.
For assay [3], the target named is ACC2 (Homo sapiens, UniProt O00763). The assay is described as follows: In vitro ACC2 inhibition assay (ADP-Glo). The format is biochemical. The following applies: read-out: ACC2. The gist of the method:
(§1)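 Enzyme (human ACC1 or ACC2) and compound, serially diluted 1:3 over 11 points from a 600 uM DMSO stock, were preincubated 15 min before substrate addition.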

In a further assay the test system is fatty acid synthesis. Briefly: In Vivo Fatty Acid Synthesis Study ([C14]-acetate incorporated into rat liver tissue). The following applies: FIG. 16. How it is done: Compounds of the present invention were also assayed in an In Vivo Fatty Acid Synthesis Study as described by Harwood et al. “Isozyme-nonselective N-Substituted Bipiperidylcarboxamide Acetyl-CoA Carboxylase Inhibitors Reduce Tissue Malonyl-CoA Concentrations, Inhibit Fatty Acid Synthesis, and Increase Fatty Acid Oxidation in Cultured Cells and in Experimental Animals” Journal of Biological Chemistry (2008) 278, 37099-37111. An exemplary procedure for the assay, which measures the amount of radioactive [C^14]-acetate incorporated into rat liver tissue, follows.
Animals given food ad water ad libitum were treated orally at a volume of 1.0 mL/200 g body weight (rat) with either an aqueous solution containing 0.5% methylcellulose (vehicle), or an aqueous solution containing 0.5% methylcellulose plus test compound. One to four hours after compound administration, animals received an intraperitoneal injection of 0.5 mL of [C^14]-acetate (64 uCi/mL; […]). […] The pooled organic fractions were transferred to liquid scintillation vials, dried under nitrogen, dissolved in 7 mL of Aquasol liquid scintillation fluid, and assessed for radioactivity using a Beckman 6500 liquid scintillation counter. Results were recorded as disintigrations per minute (DPM) per milligram of tissue.

Assay [4] deals with ACC1 (Homo sapiens, UniProt Q13085). The assay is described as follows: In vitro ACC1 inhibition assay (ADP-Glo). The format is biochemical. The following applies: read-out: ACC1. In a few lines: as §1
Background: In ADP-Glo the light output rises with the ADP produced.

The next assay concerns ACC. Briefly: IC50 quoted for Soraphen A in the thermal shift text. Format: biochemical.

Sequence of ACC2 (Homo sapiens, UniProt O00763) (O00763 whole entry, species assumed): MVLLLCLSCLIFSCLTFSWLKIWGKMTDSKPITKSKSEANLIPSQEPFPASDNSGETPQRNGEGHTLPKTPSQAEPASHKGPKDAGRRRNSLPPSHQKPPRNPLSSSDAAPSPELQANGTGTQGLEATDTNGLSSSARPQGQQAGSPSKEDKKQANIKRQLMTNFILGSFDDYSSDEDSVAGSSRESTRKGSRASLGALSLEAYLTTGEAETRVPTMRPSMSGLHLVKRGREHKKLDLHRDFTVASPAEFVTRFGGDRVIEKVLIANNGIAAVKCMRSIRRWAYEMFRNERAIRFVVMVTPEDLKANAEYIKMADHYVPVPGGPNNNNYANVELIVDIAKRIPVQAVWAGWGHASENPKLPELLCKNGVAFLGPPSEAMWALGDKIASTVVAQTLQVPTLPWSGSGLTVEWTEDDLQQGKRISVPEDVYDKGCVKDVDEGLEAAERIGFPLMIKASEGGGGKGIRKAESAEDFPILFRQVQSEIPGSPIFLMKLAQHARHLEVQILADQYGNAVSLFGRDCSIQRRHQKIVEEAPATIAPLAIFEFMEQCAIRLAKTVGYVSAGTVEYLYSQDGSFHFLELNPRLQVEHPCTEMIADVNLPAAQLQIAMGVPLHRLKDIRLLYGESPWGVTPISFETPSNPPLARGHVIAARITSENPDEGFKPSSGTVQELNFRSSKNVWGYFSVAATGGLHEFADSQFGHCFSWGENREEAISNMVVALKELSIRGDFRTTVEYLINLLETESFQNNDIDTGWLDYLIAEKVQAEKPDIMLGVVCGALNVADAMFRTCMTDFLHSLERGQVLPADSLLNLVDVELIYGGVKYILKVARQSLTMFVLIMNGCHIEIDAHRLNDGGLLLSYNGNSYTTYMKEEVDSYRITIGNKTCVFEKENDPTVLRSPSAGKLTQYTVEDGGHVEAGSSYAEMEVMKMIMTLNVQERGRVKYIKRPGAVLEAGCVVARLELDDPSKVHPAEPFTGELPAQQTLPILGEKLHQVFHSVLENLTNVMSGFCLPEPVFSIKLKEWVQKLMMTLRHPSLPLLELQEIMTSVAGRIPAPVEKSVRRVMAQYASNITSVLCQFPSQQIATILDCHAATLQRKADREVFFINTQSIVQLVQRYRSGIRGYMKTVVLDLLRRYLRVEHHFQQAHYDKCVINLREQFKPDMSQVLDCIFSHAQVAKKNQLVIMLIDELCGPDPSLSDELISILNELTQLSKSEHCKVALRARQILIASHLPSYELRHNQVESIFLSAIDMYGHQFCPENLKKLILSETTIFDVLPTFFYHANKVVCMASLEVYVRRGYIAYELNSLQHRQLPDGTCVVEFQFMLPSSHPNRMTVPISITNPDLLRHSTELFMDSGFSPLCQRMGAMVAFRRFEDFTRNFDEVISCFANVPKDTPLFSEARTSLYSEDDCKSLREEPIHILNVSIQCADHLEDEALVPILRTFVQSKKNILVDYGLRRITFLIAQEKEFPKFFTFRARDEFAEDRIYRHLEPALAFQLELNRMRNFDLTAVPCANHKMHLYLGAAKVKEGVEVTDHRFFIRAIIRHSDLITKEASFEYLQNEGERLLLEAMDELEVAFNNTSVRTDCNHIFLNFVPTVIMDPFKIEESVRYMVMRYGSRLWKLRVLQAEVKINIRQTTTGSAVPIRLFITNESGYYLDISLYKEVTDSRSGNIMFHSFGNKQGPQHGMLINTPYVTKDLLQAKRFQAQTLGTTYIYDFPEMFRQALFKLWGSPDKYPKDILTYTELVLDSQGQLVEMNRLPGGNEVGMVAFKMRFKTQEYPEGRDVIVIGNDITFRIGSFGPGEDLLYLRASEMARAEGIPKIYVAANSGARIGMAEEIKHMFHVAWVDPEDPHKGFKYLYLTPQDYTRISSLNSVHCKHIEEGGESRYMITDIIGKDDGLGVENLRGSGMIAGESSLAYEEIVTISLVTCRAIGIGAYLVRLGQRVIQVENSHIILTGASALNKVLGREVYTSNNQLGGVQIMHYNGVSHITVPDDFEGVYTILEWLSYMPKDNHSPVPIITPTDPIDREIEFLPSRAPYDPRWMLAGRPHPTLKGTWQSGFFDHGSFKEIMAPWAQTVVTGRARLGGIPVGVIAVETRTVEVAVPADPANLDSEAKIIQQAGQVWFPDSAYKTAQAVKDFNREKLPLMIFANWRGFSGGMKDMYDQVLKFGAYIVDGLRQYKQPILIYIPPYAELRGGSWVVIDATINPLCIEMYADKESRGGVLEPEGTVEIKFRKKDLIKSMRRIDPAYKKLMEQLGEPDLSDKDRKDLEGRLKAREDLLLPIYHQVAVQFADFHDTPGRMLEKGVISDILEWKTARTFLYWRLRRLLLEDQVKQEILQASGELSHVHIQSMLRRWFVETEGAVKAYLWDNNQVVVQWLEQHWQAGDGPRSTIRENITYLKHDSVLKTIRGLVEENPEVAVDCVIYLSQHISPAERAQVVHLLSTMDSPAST

`O=C(c1c2ccccc2cc2ccccc12)N1CCC(N2CCC[C@@H](C(=O)N3CCOCC3)C2)CC1` [CP-640186]: the IC50 in the assay with ACC1 [1] and with ACC2 [2] was around 60 nM throughout.

Turning to `COc1ccccc1[C@H](Cn1c(=O)n(C(C)(C)C(=O)O)c(=O)c2c(C)c(-c3ncco3)sc21)O[C@H]1CC[C@@H](O)CC1` [I-278, 2-[1-[(2R)-2-[(4-hydroxycyclohexyl)oxy]-2-(2-methoxyphenyl)ethyl]-5-methyl-6-(1,3-oxazol-2-yl)-2,4-doxo-1H,2H,3H,4H-thieno[2,3-d]pyrimidin-3-yl]-2-methylpropanoic acid], the IC50 at ACC2 [3] and on ACC1 [4] was below 100 nM in each case. Moreover, the “fatty acid (FA) synthesis in rats” value with fatty acid synthesis is recorded as “dose-dependent decrease in FA synthesis”.

Turning to `CO[C@H]1CCCC[C@@H](c2ccccc2)OC(=O)[C@@H](C)[C@@]2(O)O[C@H]([C@@H](C)[C@H](O)[C@H]2OC)[C@@H](C)/C=C/[C@H]1OC` [Soraphen A], the IC50 in the assay with ACC worked out at 4 nM.
